d = 2'-deoxy (DNA)
Experiments:
Type in all cases: cell-based, human
BxPC-3 cells [1] = assay: BrdU incorporation cell proliferation assay; settings: BxPC-3, inhibitor 20 μM, 24 h
Method: (§1) To assess cell proliferation and apoptosis, cells were plated in duplicates on a 96-well plate and incubated in 100 μl of the cell line appropriate media described above. Cells were transfected with siRNA soon after complete attachment (approx. 3 h after seeding). Cells were treated with vehicle, 20 μM gemcitabine, 20 μM T16Ainh-A01, or 10 μM free NS3728 (see below) after culture in a humidified 37 °C and 5 % CO2 incubator overnight. BrdU incorporation was measured using Cell Proliferation ELISA, BrdU (chemiluminescent) (Roche Diagnostics A/S, Denmark) following the manufacturer’s instructions. Caspases 3, 6, and 7 activation was evaluated using Homogeneous Caspases Assay (fluorimetric) (Roche Diagnostics A/S, Denmark).
(§2) Fig. 7 VRAC, but not ANO1, regulates cellular proliferation. a Summary of BrdU incorporation in HPDE, Capan-1, AsPC-1, and BxPC-3 cells after various treatments as indicated. Cells were transfected shortly after complete attachment (approx. 3 h) and BrdU incorporation was assessed 36 h after transfection. To investigate effect of inhibitors, cells were incubated for 24 h with respective inhibitor. Values shown are relative to appropriate control. Data shown represents mean ± s.e.m. of n = 4–6 individual experiments. **p ≤ 0.01 and ***p ≤ 0.001 when compared with control

BxPC-3 cells [2] = assay: Scratch wound healing assay; settings: 5 μM aphidicolin; for effect on wound closure / migratory behavior: BxPC-3, inhibitor 20 μM
Method: Cells were seeded into Essen ImageLock 96-well plates. Cells were transfected with siRNA shortly after cells completely attached at 80 % confluency. […] The wound confluence was obtained and analyzed by using the IncuCyte phase-contrast imaging and scratch wound assay system and software (Essen Bioscience, USA). Wound closure was assessed by comparing the mean relative wound density (%RWD) according to the following formula: % RWD = 100 × w(t) − w(0)/[…]. Here, w(t) is the density of wounded area at time t and c(t) is the density of cell region at time t. Each experiment was conducted in triplicates.
We therefore assessed a possible contribution of ANO1 in PDAC cell migration using wound healing assay. […] The experiments were conducted in the presence of 5 μM aphidicolin to rule out a possible effect on cell proliferation. […] AsPC-1 cells were therefore not well suited for studies of lateral motility.
Fig. 9 ANO1 supports migration of PDAC cells. Wound healing assay is shown as relative wound density (density of wounded area relative to confluency of cell region) over time. Aphidicolin (5 μM) was added to stop proliferation. a AsPC-1 cells and b BxPC-3 cells after transfection with either scrambled siRNA (5 nM) or siRNA targeting ANO1 (50 nM). c BxPC-3 cells in presence of different inhibitors. Data shown represents mean ± s.e.m. of n = 4 experiments; each run was carried out in triplicates

HPDE cells = assay: Fura-2 measurement of free intracellular calcium, ATP stimulation; settings: for effect on basal [Ca2+]i: inhibitor 20 μM
Method: (§3) HPDE and BxPC-3 cells were incubated with 2 μM Fura-2 AM (Sigma-Aldrich, Denmark) for 30 min at 37 °C. Cells were subsequently washed with Krebs solution containing (in mM) 150 NaCl, 6 KCl, 1.5 CaCl2, 1 MgCl2, 10 glucose, and 10 HEPES; pH was adjusted to 7.4 using NaOH. Coverslips were mounted on a recording chamber. In the beginning of the experiment, cells were perfused with Krebs solution at 4 ml/min until baseline was stable. […] Changes in [Ca^2+]i were measured by a TIRF iMIC microscope (TILL Photonics, Germany). Fura-2 AM loaded cells were illuminated at 340 nm for 80 ms and 380 nm for 80 ms at 1 s intervals using a TILL Polychrome monochromator. Five hundred-nanometer emission images were captured by an image-intensifying, charge-coupled device (CCD) camera (TILL Photonics, Germany) and digitized by an image processing system (TILL Photonics, Germany). The monochromator and CCD camera were controlled by LA Live Acquisition software, which was also used for image analysis. The [Ca^2+]i was presented as the Fura-2 ratio of the fluorescence signals obtained at 340/380 nm.
(§4) Fig. 8 Cl^− channel inhibitors alter ATP-induced Ca^2+ signals. Intracellular Ca^2+ measurements in FURA-2 loaded HPDE and BxPC-3 cells. a Representative single-cell traces of individual experiments. Different substances were applied as indicated. […] (n) = number of individual experiments; each containing between 5–45 single cells.***p ≤ 0.001 when compared to no inhibitor condition; ^## p ≤ 0.01 when compared with HPDE no inhibitor
(§5) Activation of CaCC requires an increase in [Ca^2+]i, which can be achieved by stimulation of receptors such as purinergic receptors. Therefore, we studied the effect of Cl^− channel inhibitors on changes in [Ca^2+]i induced by purinergic signaling. We chose HPDE cells with very low expression levels of ANO1 and the highly ANO1 overexpressing cell line BxPC-3 for investigation. Fura-2 loaded HPDE and BxPC-3 cells were stimulated with ATP (10 μM) (Fig. 8) or exposed to the inhibitor prior to stimulation. ATP stimulation caused a 0.46 ± 0.03 peak increase in the Fura-2 ratio in HPDE and 0.55 ± 0.02 in BxPC-3 cells. […] However, no effect of the inhibitor on basal Ca^2+ level was observed.

BxPC-3 cells [3] = assay: as above; settings: for effect on basal [Ca2+]i: BxPC-3, inhibitor 20 μM
Method: as §3, §4, §5

[4] = test system: HPDE, Capan-1, AsPC-1, and BxPC-3 cells; assay: BrdU incorporation cell proliferation assay, all tested cell lines
Method: as §1, §2

CC(C)(C)C1CCc2c(sc(NC(=O)c3ccco3)c2C(=O)O)C1 (stereo not shown) [CaCCinh-A01, 6-(1,1-dimethylethyl)-2-[(2-furanylcarbonyl)amino]-4,5,6,7-tetrahydrobenzo[b]thiophene-3-carboxylic acid]
proliferation (BrdU incorporation) (BxPC-3 cells [1]): larger effect
effect on wound closure / migratory behavior (BxPC-3 cells [2]): seemed to slow down wound closure; however, this did not reach significance
effect on basal [Ca2+]i (HPDE cells): reversible increase
effect on basal [Ca2+]i (BxPC-3 cells [3]): reversible increase

CCc1c(C)nc(SCC(=O)Nc2nc(-c3ccc(OC)cc3)cs2)[nH]c1=O [T16Ainh-A01, 2-[(5-Ethyl-1,6-dihydro-4-methyl-6-oxo-2-pyrimidinyl)thio]-N-[4-(4-methoxyphenyl)-2-thiazolyl]acetamide]
proliferation (BrdU incorporation) ([4]; ANO1-overexpressing cancer cells, 20 μM, 24 h): none of the ANO1-overexpressing cancer cells showed any significant decrease in proliferation
proliferation (BrdU incorporation) (BxPC-3 cells [1]): slight, but non-significant decrease of proliferation
effect on wound closure / migratory behavior (BxPC-3 cells [2]): no detectable effect on migratory behavior
effect on basal [Ca2+]i (HPDE cells): no effect
ATP-induced change in Fura-2 ratio after inhibitor (HPDE cells; inhibitor 20 μM before ATP 10 μM): 0.32 ± 0.03
effect on basal [Ca2+]i (BxPC-3 cells [3]): no effect
ATP-induced change in Fura-2 ratio after inhibitor (BxPC-3 cells [3]; BxPC-3, inhibitor 20 μM before ATP 10 μM): 0.42 ± 0.03

siRNA targeting ANO1: Predesigned siRNA oligo from Sigma-Aldrich, 5′-CCUUCAACGUCAGUGACUU[dT][dT]-3′, 5′-AAGUCACUGACGUUGAAGG[dT][dT]-3′ (RNA, 3' dTdT, backbone not given here)
proliferation (BrdU incorporation) ([4]; siRNA 50 nM vs mock 5 nM, 36 h after transfection, any of the tested cell lines): did not cause any significant change in proliferation
migration decreased to (BxPC-3 cells [2]; BxPC-3, siRNA 50 nM, after 60 h): 30 ± 8%

— publication PMC4464647, “ANO1 (TMEM16A) in pancreatic ductal adenocarcinoma (PDAC)” (Pflugers Archiv, 2014)
